Common to all, as to type: cell-based, human
The test system of assay [1] is H4K16ac (the target of SIRT1 and SIRT2). In words: Sirtuin activity assay in HDF: H4K16ac levels (Western blot).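 Also: screen looked for decreased acetylation as a sign of sirtuin activation.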 Conditions: HDF treated 24h. On the procedure:
Figure 1 (A) Schematic representation of the compound testing for sirtuin activity evaluation in HDF. Cells were treated with or without the compounds for 24h and harvested for analysis. […] (C) Western Blot analysis and (D) quantification of H4K16ac and H3K9ac levels in cells treated with Resveratrol or Shikimic acid at the indicated concentrations. H4K16 and H3K9 levels were normalized to H4 and H3 levels respectively. Student T-test, *p<0.05, **p<0.01, ***p<0.001.
HDFs were plated in 100x20 mm2 cell culture plates and after 24h, fresh cell culture medium containing the compounds was added. After 24h, cells were detached with cell scrapers, harvested, and processed for qPCR or western blot.
Protein levels were analyzed as previously described. Cells were directly lysed in 1x Laemmli Buffer (Bio-Rad, USA), incubated at 95° C and centrifuged. Supernatant was subjected to SDS-polyacrylamide gel electrophoresis, and successive steps were performed as described. The list of antibodies used is included in Supplementary Table 2.
A general note: A western blot detects proteins with antibodies after separation by electrophoresis.

In a further assay the test system is IL-6. The experiment in a line: IL-6 mRNA levels (qPCR). Particulars: UVB-irradiated HDF, SA 10, 25, 50 mM -/+ EX-527 1 μM. On the procedure: Figure 3 (A) Schematic representation of the protocol for senescence induction using UVB irradiation and study of EX527 involvement in the effect of Shikimic acid. Cells were treated with or without shikimic acid -/+ EX-527 from day 1 until day 7 after seeding, irradiated with UVB on days 2 and 5 and harvested for analysis on day 7. (B) Phase-contrast (left column) and bright field (right column) microscope images of β-Gal staining showing non-irradiated cells non-treated and treated with shikimic acid (10, 25 and 50 mM), UVB-irradiated cells non-treated and treated with shikimic acid (10, 25 and 50 mM), shikimic acid (10, 25 and 50 mM) + EX-527 1 μM and EX-527 1 μM. […] SIRT1 activity was then evaluated by analyzing acetylation of H3K9, H4K16 and p53K382 by Western blot. […]
RNA was extracted from cell pellets using the Total RNA Purification Kit (Norgen, Canada), according to the manufacturer’s protocol. Extracted RNA was quantified using a NanoDrop® ND-1000 UV-Vis Spectrophotometer (Thermo Fisher Scientific, USA) and 300 ng of RNA were retrotranscribed to cDNA using the PrimeScriptTM RT reagent kit (Takara Bio Inc., Japan). cDNA was diluted 1/10 in ultrapure water and qPCR mix was prepared by adding cDNA (12 ng), SYBR green supermix (Bio Rad, USA), forward and reverse primers (0.2μM). […] The results were analyzed with Bio-Rad CFX Manager software. […]

The subject of assay [2] is HDF cells (misfolded proteins). The experiment in a line: FTIRM analysis, beta-sheet to alpha-helix ratio. Conditions: UVB-irradiated cells, SA 25 mM -/+ EX-527 1 μM. On the procedure: Figure 4 (A) SRB and Trypan blue cell viability assays performed in cells treated with or without Shikimic acid (5, 10, 25 and 50 mM) for 24h. (B) Apoptosis detection using the Annexin V-FITC/PI double staining followed by flow cytometry in non-irradiated and non-treated cells, irradiated and non-treated cells and irradiated cells treated with Shikimic acid (10, 25 and 50 mM). (C) Representation and statistical analysis of the percentage of apoptotic cells in each of the conditions analyzed. (D) Cell cycle analysis using PI staining followed by flow cytometry. (E) Relative p16^INK4a mRNA levels monitored by qPCR in the indicated conditions. Student T-test, *p<0.05. (F) Immunofluorescence of γH2AX in non-irradiated and non-treated cells, irradiated and non-treated cells and irradiated cells treated with Shikimic acid (10, 25 and 50 mM). […]
FTIRM measurements were performed at the MIRAS beamline of ALBA Synchrotron using the internal (Globar®) source. […] The structure content of the amide I peak (1710-1598 cm−1) was determined by band deconvolution using Gaussian band fitting profiles (Origin 7.0 software). The position and number of peaks, which were assigned to specific types of secondary structures, were determined using the second derivative of the spectra.

As to `O=C(O)C1=C[C@@H](O)[C@@H](O)[C@H](O)C1` [Shikimic acid], in assay [1], the “effect on H4K16ac levels” value was “induced a similar effect on both targets”. The “IL-6 mRNA levels” value in the assay on IL-6 was “induced a reduction in the levels of expression of the inflammatory cytokine IL-6”. In addition, the “β-sheet/α-helix ratio (misfolded proteins)” value in assay [2] was “inhibited these levels well below the ratio observed in control cells”.

The record behind these values is publication PMC8148468, “Shikimic acid protects skin cells from UV-induced senescence through activation of the NAD+-dependent deacetylase SIRT1” (Aging (Albany NY), 2021).
